# Data taken from patent US20040077654A1, “Aryl piperidine and piperazine derivatives as inducers of ldl-receptor expression” (priority 2003, published 2004).
# Tested on: LDL-r promoter
# Assay: LDL-r promoter luciferase reporter gene assay in stably transfected HepG2 cells
# Type: cell-based, human
# Settings: HepG2 cells with LDL-r promoter/luciferase construct; 24 hours incubation in RPMI with 2% lipoprotein-deficient serum; induction of luciferase activity; read-out: In vitro (IC50)
# Description: The ability of the compounds of the invention to induce LDL-r expression by human hepatocytes in vitro is determined using a human hepatocarcinoma cell line, Hep G2, as a model system. A reporter gene assay using the LDL-R promotor in front of the Luciferase reporter gene is used as a primary screen.
# HepG2 cells, stably transfected with a construct comprising the LDL-r promoter and the luciferase reporter gene, were seeded at 50.000 cells/well in 96 well plates. After 1 day, cells were incubated with compounds for 24 hours in RPMI medium containing 2% of lipoprotein-deficient serum. Compounds were tested from 10^−6M to 10^−9M. Cell lysates were prepared and the luciferase activity was measured by the luciferase assay system (Promega). Induction of luciferase activity was calculated taking untreated cells as control and ED50 of each compounds was determinated compared to the ED50 of an internal standart.
row,EC50 [nM],Compound
1,4,Cc1cc(C2CCN(CCCCNC(=O)c3ccc(-c4ccc(C(F)(F)F)cc4)cc3)CC2)c(C)cc1OCc1ccccn1 [Example 7]
2,20,"O=C(NCCCCN1CCC(c2ccc3c(c2OCC2CC2)CCCC3)CC1)c1ccc2oc(-c3ccc(Cl)c(Cl)c3)cc2c1 [Example 31, 2-(3,4-Dichloro-phenyl)-benzofuran-5-carboxylic acid {4-[4-(1-cyclopropylmethoxy-5,6,7,8-tetrahydro-naphtalen-2-yl)-piperidin-1-yl]-butyl}-amide]"
3,13,"O=C(NCCCCN1CCC(c2ccc3c(c2OCC2CC2)CCCC3)CC1)c1ccc2oc(-c3ccc(C(F)(F)F)nc3)cc2c1 [Example 32, 2-(6-Trifluoromethyl-pyridin-3-yl)-benzofuran-5-carboxylic acid {4-[4-(1-cyclopropylmethoxy-5,6,7,8-tetrahydronaphtalen-2-yl)-piperidin-1-yl]-butyl}-amide]"

row,Compound,EC50 [nM]
1,"COc1c(C2CCN(CCCCOc3ccc(-c4ccc(C#N)cc4)cc3)CC2)ccc2ccccc12 [Example 26, 4′-{4-[4-(1-Methoxy-naphtalen-2-yl)-piperidin-1-yl]-butoxy}-biphenyl-4-carbonitrile]",1

# Same assay, conditions: Homo sapiens; HepG2 cells with LDL-r promoter/luciferase construct; 24 hours incubation in RPMI with 2% lipoprotein-deficient serum; induction of luciferase activity; read-out: In vitro (IC50)
row,EC50 [nM],Compound
1,30,"CCOc1cc(C)ccc1C1CCN(CCCCNC(=O)c2ccc(C=Cc3ccc(C(F)(F)F)cc3)cc2)CC1 [Example 33, N-{4-[4-(2-Ethoxy-4-methyl-phenyl)-piperidin-1-yl]-butyl}-4-[2-(4-trifluoromethylphenyl)-vinyl]-benzamide]"
2,117,"CCOc1cc(C)ccc1N(C1CCN(CCCCNC(=O)c2ccc(-c3ccc(C(F)(F)F)cc3)cc2)CC1)S(=O)(=O)c1ccccc1 [Example 20, 4′-Trifluoromethyl-biphenyl-4-carboxylic Acid (4-{4-[benzenesulfonyl-(2-ethoxy-4-methyl-phenyl)-amino]-piperidin-1-yl}butyl)-amide]"
3,10,"Cn1cc(C2CCN(CCCCNC(=O)c3ccc(-c4ccc(C#N)cc4)cc3)CC2)c2ccccc21 [Example 40, 4′-Cyano-biphenyl-4-carboxylic acid {4-[4-(1-methyl-1H-indol-3-yl)-piperidin-1-yl]-butyl}-amide]"

# Tested on: not given
# Assay: not given
# Settings: not given
row,melting point [°C],Compound
1,191 to 192,"CSc1ccccc1C1CCN(CCCCNC(=O)c2ccc(-c3ccc(C(F)(F)F)cc3)cc2)CC1 [Example 13, 4′-Trifluoromethyl-biphenyl-4-carboxylic acid {4[4-(2-methylsulfanyl-phenyl)-piperidin-1-yl]-butyl}-amide]"
2,254,"CCOc1cc(C)ccc1C1CCN(CCCCNC(=O)c2ccc(NC(=O)c3ccc(Cl)cc3)cc2)CC1 [Example 2, 4-(4-chloro-benzoylamino)-N-{4-[4-(2-ethoxy-4-methyl-phenyl)-piperidin-1-yl]-butyl}-benzamide]"
3,180 to 182,"CCOc1cc(C)ccc1C1CCN(CCCCNC(=O)c2ccc(OCc3ccc(C(F)(F)F)cc3)cc2)CC1 [Example 34, N-{4-[4-(2-Ethoxy-4-methyl-phenyl)-piperidin-1-yl]-butyl}4-(4-trifluoromethyl-benzyloxy)-benzamide]"
4,227,COc1cc(C)ccc1N1CCN(CCCCNC(=O)c2ccc(NC(=O)c3ccc(Cl)cc3)cc2)CC1.Cl (hydrate or solvate)
5,270,"O=C(NCCCCN1CCC(c2ccc3ccccc3c2)CC1)c1ccc(NC(=O)c2ccc(Cl)cc2)cc1 [Example 9, 4-(4-chloro-benzoylamino)-N-[4-(4-naphthalen-2-yl-piperidin-1-yl]-butyl}-benzamide]"
6,210,"CCOc1cc(C)ccc1C1CCN(CCCCNC(=O)c2ccc(C=Cc3ccc(C(F)(F)F)cc3)cc2)CC1 [Example 33, N-{4-[4-(2-Ethoxy-4-methyl-phenyl)-piperidin-1-yl]-butyl}-4-[2-(4-trifluoromethylphenyl)-vinyl]-benzamide]"
7,238 to 248,"O=C(NCCCCN1CCC(c2ccc3c(c2)OCO3)CC1)c1ccc(NC(=O)c2ccc(Cl)cc2)cc1 [Example 8, 4-(4-chloro-benzoylamino)-N-[4-(4-benzo[1,3]dioxol-5-yl-piperidin-1-yl]-butyl}-benzamide]"
8,242,"CCOc1cc(C(C)C)ccc1C1CCN(CCCCNC(=O)c2ccc(NC(=O)c3ccc(Cl)cc3)cc2)CC1 [Example 6, 4-(4-chloro-benzoylamino)-N-{4-[4-(2-ethoxy-4-isopropyl-phenyl)-piperidin-1-yl]-butyl}-benzamide]"
9,110,"CCOc1cc(C)ccc1N(C1CCN(CCCCNC(=O)c2ccc(-c3ccc(C(F)(F)F)cc3)cc2)CC1)S(=O)(=O)c1ccccc1 [Example 20, 4′-Trifluoromethyl-biphenyl-4-carboxylic Acid (4-{4-[benzenesulfonyl-(2-ethoxy-4-methyl-phenyl)-amino]-piperidin-1-yl}butyl)-amide]"
10,264,"O=C(NCCCCN1CCC(c2csc3ccccc23)CC1)c1ccc(-c2ccc(C(F)(F)F)cc2)cc1 [Example 16, 4′-Trifluoromethyl-biphenyl-4-carboxylic acid [4-(4-benzo[b]thiophen-3-yl-piperidin-1-yl)-butyl]-amide]"
11,170,"COc1cc(C(C)C)ccc1C1CCN(CCCCNC(=O)c2sc(-c3ccc(C(F)(F)F)cc3)nc2C)CC1 [Example 27, 4-Methyl-2-(4-trifluoromethyl-phenyl)-thiazole-5-carboxylic acid {4-[4-(4-isopropyl-2-methoxy-phenyl)-piperidin-1-yl]-butyl}-amide]"
12,200,"CCOc1cc(C)ccc1C1CCN(CCCCNC(=O)c2ccc3oc(-c4ccc(C(F)(F)F)cc4)cc3c2)CC1 [Example 29, 2-(4-Trifluoromethyl-phenyl)-benzofuran-5-carboxylic Acid {4-[4-(2-ethoxy-4-methyl-phenyl)-piperidin-1-yl]-butyl}-amide]"
13,238,COc1ccc(C2CCN(CCCCNC(=O)c3ccc(NC(=O)c4ccc(Cl)cc4)cc3)CC2)c(OC)c1.Cl
14,264,"O=C(NCCCCN1CCC(c2cccc3ccccc23)CC1)c1ccc(NC(=O)c2ccc(Cl)cc2)cc1 [Example 11, 4-(4-chloro-benzoylamino)-N-[4-(4-naphthalen-1-yl-piperidin-1-yl]-butyl}-benzamide]"
15,285,"O=C(NCCCCN1CCC(c2ccc3c(c2)CCCC3)CC1)c1ccc(NC(=O)c2ccc(Cl)cc2)cc1 [Example 10, 4-(4-chloro-benzoylamino)-N-{4-[4-(5,6,7,8-tetrahydro-naphthalen-2-yl)-piperidin-1-yl]-butyl}-benzamide]"
16,235,"CCc1ccc(C2CCN(CCCCNC(=O)c3ccc(NC(=O)c4ccc(Cl)cc4)cc3)CC2)c(OC)c1 [Example 4, 4-(4-chloro-benzoylamino)-N-{4-[4-(4-ethyl-2-methoxy-phenyl)-piperidin-1-yl]-butyl}-benzamide]"
17,162,"CCOc1cc(C)ccc1NC1CCN(CCCCNC(=O)c2ccc(-c3ccc(C(F)(F)F)cc3)cc2)CC1 [Example 19, 4′-Trifluoromethyl-biphenyl-4-carboxylic acid {4-[4-(2-ethoxy-4-methyl-phenylamino)-piperidin-1-yl]-butyl}-amide]"
18,136 to 137,"CCOc1ccc(CC2CCN(CCCCNC(=O)c3ccc(-c4ccc(C(F)(F)F)cc4)cc3)CC2)c(OCC)c1 [Example 38, 4′-trifluoromethyl-biphenyl-4-carboxylic acid {4-[4-(2,4-diethoxy-benzyl)-piperidin-1-yl]-butyl}amide]"
19,180,"Cn1cc(C2CCN(CCCCNC(=O)c3ccc(-c4ccc(C#N)cc4)cc3)CC2)c2ccccc21 [Example 40, 4′-Cyano-biphenyl-4-carboxylic acid {4-[4-(1-methyl-1H-indol-3-yl)-piperidin-1-yl]-butyl}-amide]"
20,178,"CCOc1cc(C)ccc1C1CCN(CCCCC(=O)Nc2ccc(-c3ccc(C(F)(F)F)cc3)cc2)CC1 [Example 24, 5-[4-(2-Ethoxy-4-methyl-phenyl)-piperidin-1-yl]-pentanoic acid (4′-trifluoromethyl-biphenyl-4-yl)-amide]"
21,145 to 158,"CCOc1cc(C)ccc1C1CCN(CCCCNC(=O)c2ccc3oc(-c4ccc(Cl)cc4)cc3c2)CC1 [Example 30, 2-(4-Chloro-phenyl)-benzofuran-5-carboxylic acid {4-[4-(2-ethoxy-4-methylphenyl)-piperidin-1-yl]-butyl}-amide]"
22,250,"CCOc1cc(CC)ccc1C1CCN(CCCCNC(=O)c2ccc(NC(=O)c3ccc(Cl)cc3)cc2)CC1 [Example 3, 4-(4-chloro-benzoylamino)-N-{4-[4-(2-ethoxy-4-ethyl-phenyl)-piperidin-1-yl]-butyl}-benzamide]"
23,188 to 190,CCOc1cc(C)ccc1C1CCN(CCCCNS(=O)(=O)c2ccc(-c3ccc(C(F)(F)F)cc3)cc2)CC1.Cl
24,174 to 175,"CCOc1cc(C)ccc1C1CCN(CCCCNC(=O)c2ccc3c(c2)cc(-c2ccc(Cl)cc2)n3C)CC1 [Example 28, 2-(4-Chloro-phenyl)-1-methyl-1H-indole-5-carboxylic Acid {4-[4-(2-ethoxy-4-methyl-phenyl)-piperidin-1-yl]-butyl}-amide]"
25,205 to 206,"Cn1cc(C2CCN(CCCCNC(=O)c3ccc(-c4ccc(C(F)(F)F)cc4)cc3)CC2)c2ccccc21 [Example 14, 4′-Trifluoromethyl-biphenyl-4-carboxylic acid {4-[4-(1−methyl-1H-indol-3-yl)-piperidin-1-yl]-butyl}-amide]"
26,241,"COc1cc(C(C)C)ccc1C1CCN(CCCCNC(=O)c2ccc(NC(=O)c3ccc(Cl)cc3)cc2)CC1 [Example 5, 4-(4-chloro-benzoylamino)-N-{4-[4-(4-isopropyl-2-methoxy-phenyl)-piperidin-1-yl]-butyl}-benzamide]"
